Assays:
SF-268 = test: cells; conditions: Homo sapiens, SF-268, 48 h; for CC50: read-out: LC50
BT-549 = test: cells; conditions: Homo sapiens, BT-549, 48 h; for CC50: read-out: LC50
M14 = test: cells; conditions: Homo sapiens, M14, 48 h; for CC50: read-out: LC50
786-0 = test: cells; conditions: Homo sapiens, 786-0, 48 h; for CC50: read-out: LC50
HOP-62 = test: cells; conditions: Homo sapiens, HOP-62, 48 h; for CC50: read-out: LC50
OVCAR-4 = test: cells; conditions: Homo sapiens, OVCAR-4, 48 h; for CC50: read-out: LC50
60 cancer cell lines = test: NCI-60 one-dose screen (10 μM); format: cell-based; conditions: Homo sapiens; one dose of 10 μM, mean over 60 cancer cell lines; read-out: Mean Growth Percent (MGP)
From the text: Additionally, the mean of the growth percentages (MGP) of each compound against all the 60 cancer cell lines is also reported, which is used as one of the selection criteria to continue with tests at five concentration doses.

ACHN = test: cells; conditions: Homo sapiens, 48 h; for CC50: read-out: LC50
UO-31 = test: cells; conditions: Homo sapiens, UO-31, 48 h; for CC50: read-out: LC50
IGROV1 = test: cells; conditions: Homo sapiens, IGROV-1, 48 h; for CC50: read-out: LC50
EKVX = test: cells; conditions: Homo sapiens, 48 h; for CC50: read-out: LC50
OVCAR-8 = test: cells; conditions: Homo sapiens, OVCAR-8, 48 h; for CC50: read-out: LC50
UACC-257 = test: cells; conditions: Homo sapiens, UACC-257, 48 h; for CC50: read-out: LC50
HCT-116 = test: cells; conditions: Homo sapiens, HCT-116, 48 h; for CC50: read-out: LC50
NCI-H23 = test: cells; conditions: Homo sapiens, NCI-H23, 48 h; for CC50: read-out: LC50
NCI-H322M = test: cells; conditions: Homo sapiens, 48 h; for CC50: read-out: LC50
SK-MEL-2 = test: cells; conditions: Homo sapiens, SK-MEL-2, 48 h; for CC50: read-out: LC50
COLO 205 = test: cells; conditions: Homo sapiens, COLO 205, 48 h; for CC50: read-out: LC50
SK-MEL-5 = test: cells; conditions: Homo sapiens, SK-MEL-5, 48 h; for CC50: read-out: LC50
U251 = test: cells; conditions: Homo sapiens, U-251, 48 h; for GI50: U251, 48 h; for CC50: read-out: LC50
A549/ATCC = test: cells; conditions: Homo sapiens, A549, 48 h; for CC50: read-out: LC50
KM12 = test: cells; conditions: Homo sapiens, KM12, 48 h; for CC50: read-out: LC50
NCI-H460 = test: cells; conditions: Homo sapiens, NCI-H460, 48 h; for CC50: read-out: LC50
MDA-MB-435 = test: cells; conditions: Homo sapiens, MDA-MB-435, 48 h; for CC50: read-out: LC50
HL-60(TB) = test: cells; conditions: Homo sapiens, HL-60, 48 h; for CC50: read-out: LC50
CCRF-CEM = test: cells; conditions: Homo sapiens, 48 h; for CC50: read-out: LC50
HCT-15 = test: cells; conditions: Homo sapiens, HCT-15, 48 h; for CC50: read-out: LC50
SNB-75 = test: cells; conditions: Homo sapiens, SNB-75, 48 h; for CC50: read-out: LC50
SF-295 = test: cells; conditions: Homo sapiens, SF-295, 48 h; for CC50: read-out: LC50
OVCAR-5 = test: cells; conditions: Homo sapiens, OVCAR-5, 48 h; for CC50: read-out: LC50
RPMI-8226 = test: cells; conditions: Homo sapiens, RPMI-8226, 48 h; for CC50: read-out: LC50
SK-MEL-28 = test: cells; conditions: Homo sapiens, SK-MEL-28, 48 h; for CC50: read-out: LC50
MALME-3M = test: cells; conditions: Homo sapiens, 48 h; for CC50: read-out: LC50
NCI-H226 = test: cells; conditions: Homo sapiens, NCI-H226, 48 h; for CC50: read-out: LC50
SW-620 = test: cells; conditions: Homo sapiens, SW-620, 48 h; for CC50: read-out: LC50

Work on `CN(C)c1nc(NCCNS(=O)(=O)c2ccc(C3=Nc4c(N)nc(N)nc4NC(c4ccc(F)cc4)C3)cc2)nc(Nc2ccc(F)cc2)n1` (centres unmarked) [31f] yielded a GI50 (SF-268) of 4.83 µM, a CC50 (SF-268) of over 100 µM and a GI50 (BT-549) of 3.26 µM. For the same molecule, the CC50 (BT-549) was 18.2 µM, the GI50 (M14) was 3.84 µM and the CC50 (M14) was 25.3 µM. The GI50 (786-0) was 4.77 µM, the CC50 (786-0) was over 100 µM and the GI50 (HOP-62) was 96 µM. For the same molecule, the CC50 (HOP-62) was over 100 µM, the CC50 (OVCAR-4) was over 100 µM and the activity at 10 µM (60 cancer cell lines) was 37.1%. The GI50 (ACHN) was over 100 µM, the CC50 (ACHN) was over 100 µM and the GI50 (UO-31) was over 100 µM. It also gave a CC50 (UO-31) of over 100 µM, a GI50 (IGROV1) of 5.01 µM and a CC50 (IGROV1) of over 100 µM. For the same molecule, the GI50 (EKVX) was 5.17 µM, the CC50 (EKVX) was over 100 µM and the GI50 (OVCAR-8) was 12 µM. It also gave a CC50 (OVCAR-8) of over 100 µM, a GI50 (UACC-257) of 11.4 µM and a CC50 (UACC-257) of over 100 µM. For the same molecule, the GI50 (HCT-116) was 4.54 µM, the CC50 (HCT-116) was over 100 µM and the GI50 (NCI-H23) was 54.1 µM. It also gave a CC50 (NCI-H23) of over 100 µM, a GI50 (NCI-H322M) of over 100 µM and a CC50 (NCI-H322M) of over 100 µM. For the same molecule, the GI50 (SK-MEL-2) was 8.17 µM, the CC50 (SK-MEL-2) was 29 µM and the GI50 (COLO 205) was 11.8 µM. It also gave a CC50 (COLO 205) of over 100 µM, a GI50 (SK-MEL-5) of 3.36 µM and a CC50 (SK-MEL-5) of 14.9 µM. For the same molecule, the GI50 (U251) was 6.35 µM, the CC50 (U251) was over 100 µM and the GI50 (A549/ATCC) was over 100 µM. It also gave a CC50 (A549/ATCC) of over 100 µM, a GI50 (KM12) of 4.69 µM and a CC50 (KM12) of over 100 µM. The GI50 (NCI-H460) was 4.74 µM, the CC50 (NCI-H460) was over 100 µM and the GI50 (MDA-MB-435) was 5.93 µM. The CC50 (MDA-MB-435) was over 100 µM, the GI50 (HL-60(TB)) was 3.12 µM and the CC50 (HL-60(TB)) was over 100 µM. For the same molecule, the GI50 (CCRF-CEM) was 3.99 µM, the CC50 (CCRF-CEM) was over 100 µM and the GI50 (HCT-15) was over 100 µM. For the same molecule, the CC50 (HCT-15) was over 100 µM, the GI50 (SNB-75) was 2.53 µM and the CC50 (SNB-75) was 74 µM. For the same molecule, the GI50 (SF-295) was 6.71 µM, the CC50 (SF-295) was over 100 µM and the GI50 (OVCAR-5) was over 100 µM. For the same molecule, the CC50 (OVCAR-5) was over 100 µM, the GI50 (RPMI-8226) was 5.25 µM and the CC50 (RPMI-8226) was over 100 µM. It also gave a GI50 (SK-MEL-28) of 15.7 µM, a CC50 (SK-MEL-28) of over 100 µM and a GI50 (MALME-3M) of 6.28 µM. It also gave a CC50 (MALME-3M) of over 100 µM, a GI50 (NCI-H226) of over 100 µM and a CC50 (NCI-H226) of over 100 µM. The GI50 (SW-620) was 8.27 µM and the CC50 (SW-620) was over 100 µM.
For `CN(C)c1nc(NCCNS(=O)(=O)c2ccc(C3=Nc4c(N)nc(N)nc4NC(c4ccc(C(F)(F)F)cc4)C3)cc2)nc(Nc2ccc(F)cc2)n1` (centres unmarked) [31g], the GI50 (SF-268) was 11.2 µM, the CC50 (SF-268) was 86 µM and the GI50 (BT-549) was 11.8 µM. The CC50 (BT-549) was 32.6 µM, the GI50 (M14) was 7.87 µM and the CC50 (M14) was 86 µM. It also gave a GI50 (786-0) of 10.1 µM, a CC50 (786-0) of 39.8 µM and a GI50 (HOP-62) of 31.4 µM. The CC50 (HOP-62) was 86 µM, the GI50 (OVCAR-4) was 25 µM and the CC50 (OVCAR-4) was 86 µM. The activity at 10 µM (60 cancer cell lines) was 6.81%, the GI50 (ACHN) was over 86 µM and the CC50 (ACHN) was over 86 µM. For the same molecule, the GI50 (UO-31) was over 86 µM, the CC50 (UO-31) was over 86 µM and the GI50 (IGROV1) was 11.2 µM. For the same molecule, the CC50 (IGROV1) was 86 µM, the GI50 (EKVX) was 5.52 µM and the CC50 (EKVX) was 86 µM. The GI50 (OVCAR-8) was 26.1 µM, the CC50 (OVCAR-8) was 86 µM and the GI50 (UACC-257) was 23.3 µM. The CC50 (UACC-257) was 86 µM, the GI50 (HCT-116) was 5.1 µM and the CC50 (HCT-116) was 86 µM. The GI50 (NCI-H23) was 27.7 µM, the CC50 (NCI-H23) was 86 µM and the GI50 (NCI-H322M) was 42.5 µM. For the same molecule, the CC50 (NCI-H322M) was 86 µM, the GI50 (SK-MEL-2) was 10.8 µM and the CC50 (SK-MEL-2) was 24.7 µM. It also gave a GI50 (COLO 205) of 9.73 µM, a CC50 (COLO 205) of 21.8 µM and a GI50 (SK-MEL-5) of 10.4 µM. The CC50 (SK-MEL-5) was 21.3 µM, the GI50 (U251) was 5.52 µM and the CC50 (U251) was 86 µM. For the same molecule, the GI50 (A549/ATCC) was 55 µM, the CC50 (A549/ATCC) was 86 µM and the GI50 (KM12) was 6.14 µM. The CC50 (KM12) was 86 µM, the GI50 (NCI-H460) was 5.49 µM and the CC50 (NCI-H460) was 86 µM. For the same molecule, the GI50 (MDA-MB-435) was 9.13 µM, the CC50 (MDA-MB-435) was 86 µM and the GI50 (HL-60(TB)) was 4.07 µM. It also gave a CC50 (HL-60(TB)) of 86 µM, a GI50 (CCRF-CEM) of 3.24 µM and a CC50 (CCRF-CEM) of 86 µM. It also gave a GI50 (HCT-15) of 55.1 µM, a CC50 (HCT-15) of 86 µM and a GI50 (SNB-75) of 2.13 µM. It also gave a CC50 (SNB-75) of 86 µM, a GI50 (SF-295) of 12.9 µM and a CC50 (SF-295) of 86 µM. It also gave a GI50 (OVCAR-5) of 19.9 µM, a CC50 (OVCAR-5) of 86 µM and a GI50 (RPMI-8226) of 4 µM. For the same molecule, the CC50 (RPMI-8226) was 86 µM, the GI50 (SK-MEL-28) was 15 µM and the CC50 (SK-MEL-28) was 86 µM. The GI50 (MALME-3M) was 11.3 µM, the CC50 (MALME-3M) was 24.2 µM and the GI50 (NCI-H226) was 37.3 µM. For the same molecule, the CC50 (NCI-H226) was 86 µM, the GI50 (SW-620) was 14.3 µM and the CC50 (SW-620) was 86 µM.
